Reference: patent US10023528B2, “Branched 3-phenylpropionic acid derivatives and their use” (BAYER INTELLECTUAL PROPERTY GMBH, priority 2011, dated 2018)

Tests used:
[1] = target: recombinant soluble guanylate cyclase (sGC), haem-free (Rattus norvegicus (Rat), UniProt P20595); experiment: Stimulation of recombinant soluble guanylate cyclase (sGC) in vitro, haem-free enzyme; type: biochemical; settings: n = 5
Experimental: Investigations on the stimulation of recombinant soluble guanylate cyclase (sGC) by the compounds according to the invention with and without sodium nitroprusside, and with and without the haem-dependent sGC inhibitor 1H-1,2,4-oxadiazolo[4,3a]quinoxalin-1-one (ODQ), are carried out by the method described in detail in the following reference: M. Hoenicka, E. M. Becker, H. Apeler, T. Sirichoke. H. Schroeder, R. Gerzer and J.-P. Stasch, “Purified soluble guanylyl cyclase expressed in a baculovirus/Sf9 system: Stimulation by YC-1, nitric oxide, and […]”, J. Mol. Med. 77 (1999), 14-23. The haem-free guanylate cyclase is obtained by adding Tween 20 to the sample buffer (0.5% in the final concentration).
(§1) The activation of sGC by a test substance is reported as x-fold stimulation of the basal activity.

[2] = target: soluble guanylate cyclase (sGC) (Rattus norvegicus (Rat), UniProt P20595); experiment: Stimulation of sGC enzyme activity (PPi detection, luciferase); type: biochemical; settings: sGC enzyme in vitro
Experimental: Soluble guanylate cyclase (sGC) converts on stimulation GTP into cGMP and pyrophosphate (PPi). PPi is detected with the aid of the assay described below. The signal produced in the assay increases as the reaction progresses and serves as a measure of the sGC enzyme activity under the given stimulation.
To carry out the assay, 29 μl of enzyme solution [0-10 nM soluble guanylate cyclase (prepared according to Hönicka et al, J. Mol. Med. 77, 14-23 (1999)) in 50 mM TEA, 2 mM MgC2, 0.1% BSA (fraction V), 0.005% Brij®, pH 7.5] are initially introduced into a microplate, and 1 μl of the substance to be tested (as a serially diluted solution in DMSO) is added. The mixture is incubated at room temperature for 10 min. Then 20 μl of detection mix [1.2 nM Firefly Luciferase (Photinus pyralis luciferase, Promega), 29 μM dehydroluciferin (prepared according to Bitler & McElroy, Arch. Biochem. Biophys. 72, 358 (1957)), 122 μM luciferin (Promega), 153 μM ATP (Sigma) and 0.4 mM DTT (Sigma) in 50 mM TEA, 2 mM MgCl2, 0.1% BSA (fraction V), 0.005% Brij®, pH 7.5] are added. The enzyme reaction is started by adding 20 μl of substrate solution [1.25 mM guanosine 5′-triphosphate (Sigma) in 50 mM TEA, 2 mM MgC2, 0.1% BSA (fraction V), 0.005% Brij®, pH 7.5] and measured continuously in a luminometer. The extent of the stimulation by the substance to be tested can be determined relative to the signal of the unstimulated reaction.
The activation of haem-free guanylate cyclase is examined by addition of 25 μM of 1H-1,2,4-oxadiazolo[4,3-a]quinoxalin-1-one (ODQ) to the enzyme solution and subsequent incubation for 30 minutes and compared to the stimulation of the native enzyme.

[3] = target: recombinant soluble guanylate cyclase (sGC), haem-containing (Rattus norvegicus (Rat), UniProt P20595); experiment: Stimulation of recombinant soluble guanylate cyclase (sGC) in vitro, haem-containing enzyme; type: biochemical; settings: for Stimulation (x-fold) of haem-containing sGC, basal: n = 5
Source text: Hoenicka, E. M. Becker, H. Apeler, T. Sirichoke. H. Schroeder, R. Gerzer and J.-P. Stasch, “Purified soluble guanylyl cyclase expressed in a baculovirus/Sf9 system: Stimulation by YC-1, nitric oxide, and […]”, J. Mol. Med. 77 (1999), 14-23. The haem-free guanylate cyclase is obtained by adding Tween 20 to the sample buffer (0.5% in the final concentration).
as §1

[4] = tested on: recombinant guanylate cyclase reporter cell line (CHO reporter cell); experiment: Action at a recombinant guanylate cyclase reporter cell line; type: cell-based; settings: CHO reporter cell in vitro; read-out: MEC (minimum effective concentration), sGC-activating activity in the CHO reporter cell
Experimental: The cellular action of the compounds according to the invention is determined at a recombinant guanylate cyclase reporter cell line, as described in F. Wunder et al., Anal. Biochem. 339, 104-112 (2005).

[5] = tested on: saphenous artery rings; experiment: Vasorelaxant effect in vitro (phenylephrine-contracted saphenous artery rings); type: cell-based; settings: Oryctolagus cuniculus; rabbit saphenous artery rings, phenylephrine-induced contraction
Experimental: Rabbits are anaesthetized and sacrificed by intravenous injection of thiopental sodium (about 50 mg/kg) and exsanguinated. The saphenous artery is removed and divided into rings 3 mm wide. The rings are mounted singly on in each case a pair of triangular hooks open at the end and made of 0.3 mm-thick special wire (Remanium®). Each ring is placed under an initial tension in 5 ml organ baths with Krebs-Henseleit solution which is at 37° C., is gassed with carbogen and has the following composition: NaCl 119 mM; KCl 4.8 mM; CaCl2×2 H2O 1 mM; MgSO4×7 H2O 1.4 mM; KH2PO4 1.2 mM; NaHCO3 25 mM; glucose 10 mM; bovine serum albumin 0.001%. The force of contraction is detected with Statham UC2 cells, amplified and digitized via A/D converters (DAS-1802 HC, Keithley Instruments, Munich) and recorded in parallel on chart recorders. Contractions are induced by addition of phenylephrine.
After several (generally 4) control cycles, the substance to be investigated is added in each further run in increasing dosage, and the level of the contraction achieved under the influence of the test substance is compared with the level of the contraction reached in the last preceding run. The concentration necessary to reduce the contraction reached in the preceding control by 50% is calculated from this (IC50). The standard application volume is 5 μl. The proportion of DMSO in the bath solution corresponds to 0.1%.

Chain of recombinant soluble guanylate cyclase (sGC), haem-free (P20595 whole entry): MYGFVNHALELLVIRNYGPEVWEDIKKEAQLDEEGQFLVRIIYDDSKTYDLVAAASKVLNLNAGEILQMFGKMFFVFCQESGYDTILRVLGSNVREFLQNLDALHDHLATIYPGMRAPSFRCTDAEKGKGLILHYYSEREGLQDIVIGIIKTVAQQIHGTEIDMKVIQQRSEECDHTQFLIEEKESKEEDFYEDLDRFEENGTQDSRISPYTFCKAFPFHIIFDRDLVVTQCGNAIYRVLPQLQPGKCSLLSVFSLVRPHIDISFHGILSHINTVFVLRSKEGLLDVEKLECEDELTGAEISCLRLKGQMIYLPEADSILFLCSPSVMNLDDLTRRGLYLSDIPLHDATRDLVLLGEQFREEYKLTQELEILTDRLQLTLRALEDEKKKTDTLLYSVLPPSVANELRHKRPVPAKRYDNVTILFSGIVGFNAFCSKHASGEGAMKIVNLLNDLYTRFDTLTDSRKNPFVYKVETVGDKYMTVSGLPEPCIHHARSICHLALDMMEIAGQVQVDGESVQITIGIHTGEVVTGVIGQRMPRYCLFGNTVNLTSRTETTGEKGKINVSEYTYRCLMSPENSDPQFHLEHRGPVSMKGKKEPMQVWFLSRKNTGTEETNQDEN
Chain of recombinant soluble guanylate cyclase (sGC), haem-free (P19686 whole entry partner): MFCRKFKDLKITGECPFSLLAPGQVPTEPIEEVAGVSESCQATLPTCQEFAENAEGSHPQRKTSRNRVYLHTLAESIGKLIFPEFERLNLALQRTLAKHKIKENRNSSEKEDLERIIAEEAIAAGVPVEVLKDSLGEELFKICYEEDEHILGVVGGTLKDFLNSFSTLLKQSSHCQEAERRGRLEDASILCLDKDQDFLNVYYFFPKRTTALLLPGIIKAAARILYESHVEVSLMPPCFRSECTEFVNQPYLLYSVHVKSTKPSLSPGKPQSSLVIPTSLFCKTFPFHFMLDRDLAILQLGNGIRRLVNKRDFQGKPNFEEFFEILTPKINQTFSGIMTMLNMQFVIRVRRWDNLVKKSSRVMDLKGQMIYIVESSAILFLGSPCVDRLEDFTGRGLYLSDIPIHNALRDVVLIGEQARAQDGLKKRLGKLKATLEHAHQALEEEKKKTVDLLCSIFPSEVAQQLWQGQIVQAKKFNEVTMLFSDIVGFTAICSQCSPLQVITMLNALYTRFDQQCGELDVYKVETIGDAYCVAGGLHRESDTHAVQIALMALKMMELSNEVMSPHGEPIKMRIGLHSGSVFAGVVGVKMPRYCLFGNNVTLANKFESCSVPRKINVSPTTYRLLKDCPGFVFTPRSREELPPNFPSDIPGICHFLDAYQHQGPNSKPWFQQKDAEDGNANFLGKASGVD
Chain of recombinant soluble guanylate cyclase (sGC), haem-containing (P20595 whole entry): as the sequence (P20595 whole entry) above
Chain of recombinant soluble guanylate cyclase (sGC), haem-containing (P19686 whole entry partner): as the sequence (P19686 whole entry partner) above
Chain of soluble guanylate cyclase (sGC) (P20595 whole entry): as the sequence (P20595 whole entry) above
Chain of soluble guanylate cyclase (sGC) (P19686 whole entry partner): as the sequence (P19686 whole entry partner) above

SMILES: C[C@H]([C@H](C(=O)Nc1cc(C(CC(=O)O)C2CC2)ccc1Cl)c1ccc(Cl)cc1)C(F)(F)F (single isomer, unassigned; (+)) [Example 22]
- Stimulation (x-fold) of haem-free sGC, basal ([1]; 0.01 μM Example 22): 1.2 ± 0.1 x-fold
- Stimulation (x-fold) of haem-free sGC, basal ([1]; 0.1 μM Example 22): 1.6 ± 0.5 x-fold
- Stimulation (x-fold) of haem-free sGC, basal ([1]; 1.0 μM Example 22): 4.9 ± 1.5 x-fold
- Stimulation (x-fold) of haem-free sGC, basal ([1]; 10 μM Example 22): 14.2 ± 2.0 x-fold
- MEC (minimum effective concentration), activating action at the sGC enzyme [2]: 2.4 nM
- EC50 ([2]; read-out: EC50 (concentration at 50% of maximum efficacy), activating action at the sGC enzyme): 68 nM
- Stimulation (x-fold) of haem-containing sGC, +0.01 μM DEA/NO ([3]; 0.01 μM Example 22 + 0.01 μM DEA/NO): 4.4 ± 1.3 x-fold
- Stimulation (x-fold) of haem-containing sGC, +10 μM ODQ ([3]; 0.01 μM Example 22 + 10 μM ODQ): 5.7 ± 1.6 x-fold
- Stimulation (x-fold) of haem-containing sGC, basal ([3]; 0.01 μM Example 22): 1.6 ± 0.3 x-fold
- Stimulation (x-fold) of haem-containing sGC, +0.01 μM DEA/NO ([3]; 0.1 μM Example 22 + 0.01 μM DEA/NO): 3.4 ± 0.9 x-fold
- Stimulation (x-fold) of haem-containing sGC, +10 μM ODQ ([3]; 0.1 μM Example 22 + 10 μM ODQ): 6.1 ± 1.7 x-fold
- Stimulation (x-fold) of haem-containing sGC, basal ([3]; 0.1 μM Example 22): 1.6 ± 0.5 x-fold
- Stimulation (x-fold) of haem-containing sGC, +0.01 μM DEA/NO ([3]; 1.0 μM Example 22 + 0.01 μM DEA/NO): 4.4 ± 1.4 x-fold
- Stimulation (x-fold) of haem-containing sGC, +10 μM ODQ ([3]; 1.0 μM Example 22 + 10 μM ODQ): 8.4 ± 2.2 x-fold
- Stimulation (x-fold) of haem-containing sGC, basal ([3]; 1.0 μM Example 22): 2.4 ± 1.0 x-fold
- Stimulation (x-fold) of haem-containing sGC, +0.01 μM DEA/NO ([3]; 10 μM Example 22 + 0.01 μM DEA/NO): 7.8 ± 2.5 x-fold
- Stimulation (x-fold) of haem-containing sGC, +10 μM ODQ ([3]; 10 μM Example 22 + 10 μM ODQ): 18.3 ± 5.4 x-fold
- Stimulation (x-fold) of haem-containing sGC, basal ([3]; 10 μM Example 22): 4.9 ± 1.2 x-fold
- Combination with the NO donor DEA/NO: synergistic effect on sGC stimulation ([3]; haem-containing sGC, combination with DEA/NO): no synergistic effect
- Effect of the haem-dependent sGC inhibitor ODQ on the sGC activation ([3]; haem-containing sGC, with ODQ): not blocked
- minimal effective concentration [4]: 0.0018 µM
- IC50 [5]: 137 nM
